Test results published in patent publication US20230263774A1, “OPTIMIZED SURGERY PROTOCOL AND KITS” (Steadman Philippon Research Institute, priority 2020, published 2023).
“Also recorded” adds a separate entry of the source.

Key:
Z24−/− mice = experiment: Senolytic treatment of progeroid Z24−/− mice, articular cartilage degeneration / OA; format: in vivo; details: for incidence/severity of age-related disorders including osteoarthritis (OA): progeroid mice accelerated aging model
From the text: The Zmpste24−/− (Z24−/−) model of Hutchinson-Gilford Progeria Syndrome (HGPS) was used to model not only HGPS musculoskeletal decline, but also as a pre-clinical aging model due to its predictable and accelerated aging phenotypes. Z24−/− animals are short lived (˜6 months) and have severe musculoskeletal abnormalities including weight loss, dystonia, sarcopenia, osteoporosis and as reported herein, early signs of bone loss and spontaneous osteoarthritis (OA).
As a proof of concept for the potential of senolytics to reduce AC degeneration, a pilot study was conducted with Dasatinib+Quercitin (D/Q; 5 mg/kg; 50 mg/kg). Z24−/− mice were administered D/Q via oral gavage as a single dose (D/Qsin) at 4 months of age, or monthly dose starting at 2 months of age (D/Qmul) prior to sacrifice at 5 months.

[1] = system: osteochondral defect in the patellar groove of New Zealand White rabbits; experiment: Rabbit osteochondral defect + bone marrow stimulation (BMS) with oral Fisetin, oral Losartan and/or BMAC; format: in vivo; details: for Microscopic evaluation and micro-CT: 12 weeks postoperatively, with or without BMAC, preliminary; for healing capacity of BMS-mediated osteochondral defects: compared with BMS alone, preliminary results
Method: Bone Marrow Collection and BMAC Processing for Autologous Transplant: New Zealand White rabbits were anesthetized to collect bone marrow aspirate (BMA) using an 18 G heparinized spinal needle through both iliac crests simultaneously by two surgeons for the purpose of preparing bone marrow aspirate concentrate (BMAC). Bone marrow samples were collected in 10 ml syringes containing ACD-A as an anticoagulant (˜1.5 ml of ACD-A per 10 ml sample), processed under sterile BSCs, and a benchtop centrifuge was used to prepare BMACs. Filters were also used for BMA prior to processing into BMACs. These procedures were performed under sterile conditions.
A 5 mm diameter osteochondral defect was created in the patellar groove of bilateral knees for 64 New Zealand White rabbits (128 knees). Under a sterile technique, a midline 3 cm incision was made in a knee flexed at approximately 30° and approached intra-articularly through a medial parapatellar incision. The patella was dislocated, and a 5 mm diameter osteochondral defect was created in the patellar groove (depth: 2 mm), followed by BMS. To allow bone marrow MSCs to be introduced into the defect space, five equally spaced holes of 2 mm depth were drilled into the subchondral bone using a 0.7 mm burr. […] Once the creation of the osteochondral defect and the BMS procedure was completed, the joint capsule was closed and 0.5 ml of BMAC was injected into the joint cavity of the left knee.
(§1) Post-surgical evaluations were to be conducted at two time points: 6 & 12 weeks. Autologous BMAC was injected into the unilateral knee joint cavity immediately after surgery, with no BMAC injection on the other side. Each rabbit was orally treated with Fisetin, Losartan, or a combination of the two biologics from the day after surgery until the day of euthanasia, for comparison with the untreated group. Rabbits were sacrificed 6 weeks or 12 weeks postoperatively. The experimental groups were as follows (N-8 per group): 1) OD+BMS; 2) OD+BMS+oral Fisetin; 3) OD+BMS+oral Losartan; 4) OD+BMS+oral Fisetin+oral Losartan; 5) OD+BMS+BMAC; 6) OD+BMS+BMAC+oral Fisetin; 7) OD+BMS+BMAC+oral Losartan; and 8) OD+BMS+[…].

[2] = system: osteochondral defect in the patellar groove of New Zealand White rabbits; details: 6 weeks after surgery; Losartan 10 mg/kg/day oral; cited from earlier work
[3] = system: osteochondral defect in the patellar groove of New Zealand White rabbits; experiment: Rabbit osteochondral defect model, microfracture plus oral Losartan; format: in vivo
Method: An osteochondral defect (diameter: 5 mm, depth: 2 mm) was made in the patellar groove of 48 New Zealand White rabbits. The rabbits were divided into 3 groups (8/group/time point): control (osteochondral defect only), microfracture (defect+microfracture), and Losartan (defect+microfracture+Losartan). For the Losartan group, a dose of 10 mg/kg/day of Losartan was orally administrated by mixing with the chew treat daily.

[4] = system: PBMCs from fresh human peripheral blood; experiment: Fisetin treatment of isolated PBMCs, C12FDG / DRAQ7 flow cytometry; format: cell-based
From the text: A flow cytometry-based approach to assess senescent total PBMCs from fresh human peripheral blood was optimized. Cells were identified using FSC and SSC controls (FIG. 19A), while senescent cells, or C12FDG+ events, were identified with an emission of 514 nm (green channel).
To examine cellular phenotypes of C12FDG-stained cells, low, moderate, and high populations were sorted using FACS for two study participants (FIG. 20A). […] Using the same methodology, the rate and senolytic efficacy of Fisetin treatment were determined on PBMCs directly at 1, 4, 18, and 24 hr timepoints. […] Furthermore, the rate of senolytic activity of Fisetin was faster versus other known senotherapeutic drugs such as metformin, dasatinib, or quercetin (FIG. 21D).
Thus, it was next tested whether the reduction of highly senescent cells by Fisetin was associated with co-incident cell death. To this end, cells were co-stained with the viability stain DRAQ7.

[5] = system: Superoxide Dismutase 1 (SOD1); experiment: qPCR gene expression analysis of synovium harvested from the knee joint (rabbit OD + BMS study); format: in vivo, New Zealand White rabbits; details: Fisetin-treated group vs control group (p<0.01)
Method: as §1

[6] = system: bone marrow mesenchymal stem cells (BM-MSCs); experiment: Senescent cells in bone marrow mesenchymal stem cells after Fisetin, C12FDG flow cytometry; format: cell-based, human; details: 33 μM Fisetin 24 hours, passage 3
Method: Reduction in senescent cells in BMSCs after senolytic treatment: To determine a reduction in senescent cells in bone marrow stem cells after senolytic therapy, approximately 5 mL of bone marrow concentrate were obtained from a person. The BMC samples were immediately processed further to isolate the mononuclear layer and plated in a T25 flask to expand BM-MSCs. Bone marrow cells were pre-plated for 3-weeks in basal culture medium (CM) and passaged with CM+Fibroblast Growth Factor (FGF) to expand bone marrow mesenchymal stem cells (BM-MSCs). At passage 3, confluent BM-MSCs were treated with CM+FGF, 33 μM of DMSO, or 33 μM of Fisetin+GM+FGF for 24-hours in a 12-well plate. Then, […] of bafilomycin (inhibits lysosomal acidification) and […] of C12FDG (senescent label) were used to assess senescence via flow cytometry. In BM-MSCs at passage 3, the number of senescent in the Fisetin treated BM-MSCs was reduced by approximately 24% compared to the DMSO treated BM-MSCs, and approximately a 5% reduction of senescent cells was observed when compared to control BM-MSCs (FIG. 27).

[7] = system: human adipose-derived stem cells (ADSCs); experiment: Senescent cells in culture-expanded adipose-derived stem cells, staining for senescence-associated heterochromatin foci (H2AX, H3K9); format: cell-based
From the text: In preliminary experiments (FIG. 4), pre-existing senescent cells were found in cultured human adipose-derived stem cells (ADSCs). The ability of these cells to produce SASPs can induce significant damage to other stem cells or endogenous cells once re-administered into the intra-articular space. Thus, avoiding the proliferation of senescent cells from long-term expansion is critical to prevent these cells from compromising the ability of adult stem cells to repair cartilage. […] ADSCs from a young person (YF) and old person (OF) were cultured to passage 4 using normal proliferation media (DMEM/F-12, 10% FBS, 1% penicillin/streptomycin). The cells were subsequently treated with 50 μM of Fisetin for 24 hours and then cultured for 48 hours. Senescent cells were identified using antibodies for senescence-associated heterochromatin foci. […] These experiments support that Fisetin can eliminate senescent cells and SASPs in expanded stem cell populations, and this may apply to harvested tissues such as BMC from older OA patients that likely contain senescent cells (see FIGS. 2A-4, above).

[8] = system: senescent CD3+ T-Cells and plasma biomarkers; experiment: Single case: patient on Fisetin, senescent CD3+ T-Cells (C12FDG) and plasma biomarkers; format: in vivo, human; details: 150 days of Fisetin 100 mg/day
Method: Another flow cytometry-based approach was optimized to assess senescent total PBMCs and CD3+ T-Cells from fresh human peripheral blood. For this approach, T-Cells were isolated from PBMCs, washed, then stained with the senescence marker C12FDG for 1 hr, and then used for flow cytometry analysis. Cells were identified using FSC and SSC controls, while senescent cells, or C12FDG+ events, were identified with an emission of 514 nm (green channel).
Thus, it was tested whether Fisetin could reduce senescent T-Cells and plasma biomarkers for OP in a single patient enrolled in the study that disclosed Fisetin use between blood draws. […] This was commensurate with a reduction in OP markers OPG, OPN, and SOST in addition to the pro-inflammatory SASP marker TNF-α (FIG. 25B). […] In addition, in a single case study, C12FDG staining was sensitive enough to detect reductions in senescent T-Cells associated with reduction in OP and SASP biomarkers following Fisetin therapy.

**Q.** With `CO[C@H]1/C=C\C=C(/C)C(=O)NC2=CC(=O)C(NCCN(C)C)=C(C[C@@H](C)C[C@H](OC)[C@H](O)[C@@H](C)/C=C(\C)[C@@H]1OC(N)=O)C2=O` [Alvespimycin] as the molecule, how does the “incidence/severity of age-related disorders including osteoarthritis (OA)” value (Z24−/− mice) read?
**A.** can reduce

**Q.** For `CCCCc1nc(Cl)c(CO)n1Cc1ccc(-c2ccccc2-c2nn[nH]n2)cc1` [Losartan], which “Microscopic evaluation and micro-CT” value [1] is on record?
**A.** trend toward improvement

**Q.** What about the “healing capacity of BMS-mediated osteochondral defects” value [1] of the same molecule?
**A.** enhanced

**Q.** What about the “articular cartilage repair compared to microfracture or control groups” value [2] of the same molecule?
**A.** significantly improved

**Q.** And the ICRS macroscopic score ([3]; 12 weeks, Losartan 10 mg/kg/day oral + microfracture)?
**A.** 11.7±0.5

**Q.** And the “modified O'Driscoll score (based on Safranin O staining) compared to the other 2 groups” value ([3]; Losartan 10 mg/kg/day oral + microfracture)?
**A.** significantly higher

**Q.** What about the “Immunohistochemistry staining of cartilage (Col2)” value ([3]; Losartan treatment group) of the same molecule?
**A.** nearly normal structure with hyaline-like column-arranged chondrocytes

**Q.** For `O=c1c(O)c(-c2ccc(O)c(O)c2)oc2cc(O)cc(O)c12` [Quercetin], which “incidence/severity of age-related disorders including osteoarthritis (OA)” value (Z24−/− mice) is on record?
**A.** can reduce

**Q.** Which results are given for `O=c1c(O)c(-c2ccc(O)c(O)c2)oc2cc(O)ccc12` [Fisetin, 2-(3,4-dihydroxyphenyl)-3,7-dihydroxychromen-4-one]?
**A.** time of maximum reduction of high senescent cells ([4]; Fisetin on PBMCs directly): 4 h; time to significant reduction of high senescent cells ([4]; Fisetin on PBMCs directly): ≤ 1 h; high senescent cell counts and percent senescent cells ([4]; Fisetin on PBMCs directly, timepoints 1, 4, 18, 24 hr): significantly reduced; DRAQ7+ cells (cell death) with decrease in highly senescent cells ([4]; co-stained with viability stain DRAQ7, 1 and 4 hrs): concomitant increases; effect on highly senescent cells vs moderately senescent cells ([4]; isolated PBMCs (FIG. 22D)): primarily affect only highly senescent cells and not moderately senescent cells; also recorded: selectively kills highly senescent cells; rate of senolytic activity ([4]; versus metformin, dasatinib, or quercetin (FIG. 21D)): faster; Macroscopic assessment, gross images compared to the control group ([1]; 6 weeks postoperatively, control = BMS, without medication, without BMAC): significant improvement; Microscopic evaluation and micro-CT [1]: trend toward improvement; healing capacity of BMS-mediated osteochondral defects [1]: enhanced; expression level of Superoxide Dismutase 1 (SOD1) in the synovium [5]: significantly higher; reduction of number of senescent cells in BM-MSCs ([6]; compared to DMSO treated BM-MSCs): approximately 24%; reduction of senescent cells in BM-MSCs ([6]; compared to control BM-MSCs (CM+FGF)): approximately 5%; number of senescent cells in the expanded ADSCs in vitro ([7]; 50 μM Fisetin for 24 hours, then cultured 48 hours, passage 4 ADSCs from young and old female): significantly reduced; -H2AX and H3K9 in Adipose Derived Stem Cells ([7]; FIG. 4, senescence quantified by H2AX and H3K9 staining): reduces; levels of moderately and highly senescent CD3+ T-Cells [8]: reduces; OP marker OPG in plasma ([8]; pre- vs. post-Fisetin): reduction; OP marker OPN in plasma ([8]; pre- vs. post-Fisetin): reduction; OP marker SOST in plasma ([8]; pre- vs. post-Fisetin): reduction; pro-inflammatory SASP marker TNF-α in plasma ([8]; pre- vs. post-Fisetin): reduction; articular cartilage degeneration (Z24−/− mice; murine model of natural and accelerated (progeria) aging): delay; incidence/severity of age-related disorders including osteoarthritis (OA) (Z24−/− mice): can reduce
